For this assay, the target named is T1, AAK1 (Homo sapiens, UniProt Q2M2I8).
T1 construct: NP_055726.2
Put plainly: P81 filter plate assay. Format: biochemical. Particulars: full-length human AAK1, Mu2 substrate, 33P-ATP. On the procedure:
Compounds were serially diluted into a Labcyte LDV plate (Labcyte, cat#LP-0200) using a Mutiprobe (PerkinElmer) and Biomek FX (Beckman Coulter) so that the highest compound concentration was at 96 μM. Compounds were then pinged (75 nL per well) into a Greiner 384-well reaction plate (Greiner, #781076) using an ECHO 550 Liquid Handler (Labcyte). A total of 12 μl reaction buffer (IMAP buffer containing Tween and DTT, from Molecular Devices) was then added to each well of columns 1 and 13 for the negative controls and 12 μl of 2× AAK1 (0.2 nM full-length human protein, NCBI accession no. NP_055726.2) was added to the remaining wells. Enzyme was then pre-incubated with compound for 10 minutes at RT. Reactions were initiated upon Minitrak (PerkinElmer) addition of 12 μl substrate mix containing 2× Mu2 (0.2 μM, full length human protein), 2× cold ATP (2 μM), and 1.3 μCi of hot ^33P-ATP. […] proceeded for one hour at RT. Meanwhile, Millipore 384-well P81 filter plates (Millipore, catalog #MZPHNOW10) were placed on a plate washer (Zoom ZW, from Titertek) and pre-wet with 50 μl 1% phosphoric acid. Kinase reactions were then stopped upon addition of 24 μl of 2% phosphoric acid to each well and the Minitrak was then used to transfer 40 μl from each well into the pre-wet Millipore 384-well P81 filter plates. Reaction mixtures were incubated for 10 minutes at RT in the P81 plates, followed by washing five times with 100 μl/well of 1% phosphoric acid using the Zoom filter washer. The bottom of each filter plate was sealed followed by addition of 20 μl Microscint 40 to each well, sealing the top of the plates with Flashplate cover, and then waiting one hour until reading on the TopCount (PerkinElmer).

Structures are written as SMILES.

T1 sequence (Q2M2I8 1-863 isoform Q2M2I8-2): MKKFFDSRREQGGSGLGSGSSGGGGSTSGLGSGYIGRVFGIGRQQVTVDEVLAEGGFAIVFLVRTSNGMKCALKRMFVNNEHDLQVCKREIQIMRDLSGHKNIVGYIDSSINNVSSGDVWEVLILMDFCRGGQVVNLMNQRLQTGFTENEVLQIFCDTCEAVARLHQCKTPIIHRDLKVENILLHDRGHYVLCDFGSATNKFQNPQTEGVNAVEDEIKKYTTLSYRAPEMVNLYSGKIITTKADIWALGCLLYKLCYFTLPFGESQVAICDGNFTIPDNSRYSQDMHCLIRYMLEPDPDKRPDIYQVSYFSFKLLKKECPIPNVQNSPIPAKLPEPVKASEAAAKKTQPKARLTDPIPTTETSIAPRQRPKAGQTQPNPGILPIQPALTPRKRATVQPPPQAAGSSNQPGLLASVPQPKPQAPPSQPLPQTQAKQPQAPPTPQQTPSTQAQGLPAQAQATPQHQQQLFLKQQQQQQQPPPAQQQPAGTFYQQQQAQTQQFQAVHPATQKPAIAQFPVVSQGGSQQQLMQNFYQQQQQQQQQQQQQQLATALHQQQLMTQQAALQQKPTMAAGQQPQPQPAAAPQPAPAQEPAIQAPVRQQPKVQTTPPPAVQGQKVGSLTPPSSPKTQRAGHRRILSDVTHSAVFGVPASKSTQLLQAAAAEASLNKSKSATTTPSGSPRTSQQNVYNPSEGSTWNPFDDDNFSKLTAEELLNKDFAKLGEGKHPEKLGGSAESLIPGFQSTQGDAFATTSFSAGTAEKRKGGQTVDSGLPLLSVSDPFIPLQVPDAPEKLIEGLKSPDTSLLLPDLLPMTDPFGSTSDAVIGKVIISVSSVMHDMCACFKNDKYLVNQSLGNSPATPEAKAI

Turning to `CC(C)(C)OC(=O)N1CCC[C@H]1CNc1ccn2ncc(-c3ccc(C(N)=O)cc3)c2n1` [(S)-tert-butyl 2-(((3-(4-carbamoylphenyl)pyrazolo[1,5-a]pyrimidin-5-yl)amino)methyl)pyrrolidine-1-carboxylate], the IC50 was at most 0.01 µM.
The same measure for `CC(C)OC(=O)N1CCN(c2ccn3ncc(-c4cccnc4F)c3n2)CC1` [isopropyl 4-(3-(2-fluoropyridin-3-yl)pyrazolo[1,5-a]pyrimidin-5-yl)piperazine-1-carboxylate]: at most 0.01 µM.
On to `Cc1ccc(-c2cnn3ccc(N4CCN(C(=O)OC(C)C)CC4)nc23)c(=O)n1C` [isopropyl 4-(3-(1,6-dimethyl-2-oxo-1,2-dihydropyridin-3-yl)pyrazolo[1,5-a]pyrimidin-5-yl)piperazine-1-carboxylate], for which the IC50 was at most 0.01 µM.
The same measure for `CCOC(=O)N1CCN(c2ccn3ncc(-c4ccc(OC)nc4OC)c3n2)CC1` [ethyl 4-(3-(2,6-dimethoxypyridin-3-yl)pyrazolo[1,5-a]pyrimidin-5-yl)piperazine-1-carboxylate]: at most 0.01 µM; for `CC(C)OC(=O)N1CCN(c2ccn3ncc(-c4cccnc4OCCN(C)C)c3n2)CC1` [isopropyl 4-(3-(2-(2-(dimethylamino)ethoxy)pyridin-3-yl)pyrazolo[1,5-a]pyrimidin-5-yl)piperazine-1-carboxylate]: at most 0.1 µM.
The same measure for `COc1ncccc1-c1cnn2ccc(N3CCN(C(=O)OCCOC(C)(C)C)CC3)nc12` [2-(tert-butoxy)ethyl 4-(3-(2-methoxypyridin-3-yl)pyrazolo[1,5-a]pyrimidin-5-yl)piperazine-1-carboxylate]: at most 0.01 µM.
The same measure for `COCCOCCOC(=O)N1CCN(c2ccn3ncc(-c4cccnc4OC)c3n2)CC1` [2-(2-methoxyethoxy)ethyl 4-(3-(2-methoxypyridin-3-yl)pyrazolo[1,5-a]pyrimidin-5-yl)piperazine-1-carboxylate]: at most 0.1 µM.
`[2H]C1([2H])N(C(=O)OC(C)(C)C)C([2H])([2H])C([2H])([2H])N(c2ccn3ncc(Br)c3n2)C1([2H])[2H]` [tert-butyl 4-(3-bromopyrazolo[1,5-a]pyrimidin-5-yl)-d8-piperazine-1-carboxylate] registered an IC50 of at most 0.1 µM.
`COCCCOC(=O)N1CCN(c2ccn3ncc(-c4cccnc4OC)c3n2)CC1` [3-methoxypropyl 4-(3-(2-methoxypyridin-3-yl)pyrazolo[1,5-a]pyrimidin-5-yl)piperazine-1-carboxylate] had an IC50 of at most 0.01 µM.
Consider `COc1cc(-c2cnn3ccc(N4CCN(C(=O)OC(C)C)CC4)nc23)ccn1` [isopropyl 4-(3-(2-methoxypyridin-4-yl)pyrazolo[1,5-a]pyrimidin-5-yl)piperazine-1-carboxylate], for which the IC50 is at most 0.1 µM.
Regarding `COc1ncccc1-c1cnn2ccc(N3CCN(C(=O)OCCN(C)C)CC3)nc12` [2-(dimethylamino)ethyl 4-(3-(2-methoxypyridin-3-yl)pyrazolo[1,5-a]pyrimidin-5-yl)piperazine-1-carboxylate], the IC50 is at most 0.1 µM.
The same measure for `COc1cccnc1-c1cnn2ccc(N3CCN(C(=O)OC(C)C)CC3)nc12` [isopropyl 4-(3-(3-methoxypyridin-2-yl)pyrazolo[1,5-a]pyrimidin-5-yl)piperazine-1-carboxylate]: at most 1 µM; for `CCO/C=C/c1cnn2ccc(N3CCN(C(=O)OC(C)C)CC3)nc12` [(E)-isopropyl 4-(3-(2-ethoxyvinyl)pyrazolo[1,5-a]pyrimidin-5-yl)piperazine-1-carboxylate]: at most 0.1 µM.
The same measure for `CC(C)OC(=O)N1CCN(c2ccn3ncc(-c4cncc(F)c4)c3n2)CC1` [isopropyl 4-(3-(5-fluoropyridin-3-yl)pyrazolo[1,5-a]pyrimidin-5-yl)piperazine-1-carboxylate]: at most 0.01 µM.
Consider `COC(=O)COC(=O)N1CCN(c2ccn3ncc(-c4cccnc4OC)c3n2)CC1` [2-methoxy-2-oxoethyl 4-(3-(2-methoxypyridin-3-yl)pyrazolo[1,5-a]pyrimidin-5-yl)piperazine-1-carboxylate], for which the IC50 was at most 0.1 µM.
The molecule `COc1ncccc1-c1cnn2ccc(N3CCN(CC(F)(F)F)CC3)nc12` [3-(2-methoxypyridin-3-yl)-5-(4-(2,2,2-trifluoroethyl)piperazin-1-yl)pyrazolo[1,5-a]pyrimidine] displayed an IC50 of at most 0.1 µM.
The same measure for `COc1nc(C)ccc1-c1cnn2ccc(NCCCOC(C)(C)C)nc12` [N-(3-(tert-butoxy)propyl)-3-(2-methoxy-6-methylpyridin-3-yl)pyrazolo[1,5-a]pyrimidin-5-amine]: at most 0.01 µM; for `COc1cnccc1-c1cnn2ccc(N3CCN(C(=O)OC(C)C)CC3)nc12` [isopropyl 4-(3-(3-methoxypyridin-4-yl)pyrazolo[1,5-a]pyrimidin-5-yl)piperazine-1-carboxylate]: at most 0.01 µM; for `CC(C)OC(=O)N1CCN(c2ccn3ncc(-c4ccc(F)nc4)c3n2)CC1` [isopropyl 4-(3-(6-fluoropyridin-3-yl)pyrazolo[1,5-a]pyrimidin-5-yl)piperazine-1-carboxylate]: at most 0.1 µM.
In the case of `COc1ccccc1-c1cnn2ccc(N3CCN(C(=O)OC(C)C)CC3)nc12` [isopropyl 4-(3-(2-methoxyphenyl)pyrazolo[1,5-a]pyrimidin-5-yl)piperazine-1-carboxylate] it was at most 0.01 µM; in that of `CCc1ccccc1-c1cnn2ccc(NC[C@@H]3CCCN3C(=O)OC(C)(C)C)nc12` [(S)-tert-butyl 2-(((3-(2-ethylphenyl)pyrazolo[1,5-a]pyrimidin-5-yl)amino)methyl)pyrrolidine-1-carboxylate], at most 0.01 µM; in that of `Cc1ncccc1-c1cnn2ccc(N3CCN(C(=O)OC(C)C)CC3)nc12` [isopropyl 4-(3-(2-methylpyridin-3-yl)pyrazolo[1,5-a]pyrimidin-5-yl)piperazine-1-carboxylate], at most 0.1 µM.
For the molecule `CSc1ncccc1-c1cnn2ccc(N3CCN(C(=O)OC(C)C)CC3)nc12` [isopropyl 4-(3-(2-(methylthio)pyridin-3-yl)pyrazolo[1,5-a]pyrimidin-5-yl)piperazine-1-carboxylate], the concentration for half-maximal inhibition (IC50) is at most 0.1 µM.
Molecule `Cc1ccc(-c2cnn3ccc(N4CC[C@H](N(C)C(=O)OC(C)C)C4)nc23)c(=O)n1C` [(S)-isopropyl (1-(3-(1,6-dimethyl-2-oxo-1,2-dihydropyridin-3-yl)pyrazolo[1,5-a]pyrimidin-5-yl)pyrrolidin-3-yl)(methyl)carbamate] gave an IC50 of at most 1 µM.
The same measure for `CCOc1ncccc1-c1cnn2ccc(N3CCN(C(=O)OCCOC)CC3)nc12` [2-methoxyethyl 4-(3-(2-ethoxypyridin-3-yl)pyrazolo[1,5-a]pyrimidin-5-yl)piperazine-1-carboxylate]: at most 0.01 µM; for `COc1nc(C)ccc1-c1cnn2ccc(N3CCN(C(=O)OC(C)C)CC3)nc12` [isopropyl 4-(3-(2-methoxy-6-methylpyridin-3-yl)pyrazolo[1,5-a]pyrimidin-5-yl)piperazine-1-carboxylate]: at most 0.01 µM; for `COc1ncccc1-c1cnn2ccc(OCCN(C)C(=O)OC(C)C)nc12` [isopropyl (2-((3-(2-methoxypyridin-3-yl)pyrazolo[1,5-a]pyrimidin-5-yl)oxy)ethyl)(methyl)carbamate]: at most 0.1 µM.
In turn, `CC(C)OC(=O)N1CCN(c2ccn3ncc(-c4cccc5[nH]cnc45)c3n2)CC1` [isopropyl 4-(3-(1H-benzo[d]imidazol-4-yl)pyrazolo[1,5-a]pyrimidin-5-yl)piperazine-1-carboxylate] had an IC50 of at most 0.1 µM.

For orientation: IC50 means the point on the concentration scale where inhibition reaches its midpoint. The low end stands for higher potency, the high end for lower potency.

The record behind these values is US9403832B2, “Pyrazolo[1,5-a]pyrimidine-based compounds, compositions comprising them, and methods of their use” (Lexicon Pharmaceuticals, Inc., priority 2012, dated 2016).
